Source: ChEMBL document CHEMBL5113417, “Discovery of 4-(3-aminopyrrolidinyl)-3-aryl-5-(benzimidazol-2-yl)-pyridines as potent and selective SST5 agonists for the treatment of congenital hyperinsulinism” (Bioorg Med Chem Lett, 2022)

Tests used:
[1] = target: Somatostatin receptor type 5 (Homo sapiens, UniProt P35346); assay: Agonist activity at human SST5 expressed in CHO-K1 cells assessed as reduction in NKH477-induced intracellular cAMP level; assay type: functional, cell-based
Cytochrome P450 2D6 [2] = target: T1, Cytochrome P450 2D6 (Homo sapiens, UniProt P10635); assay: Inhibition of CYP2D6 (unknown origin); assay type: ADME
[3] = target: Somatostatin receptor type 5 (Rattus norvegicus, UniProt P30938); assay: Agonist activity at rat SST5; assay type: functional
[4] = target: Voltage-gated inwardly rectifying potassium channel KCNH2 (Homo sapiens, UniProt Q12809); assay: Inhibition of hERG by patch clamp assay; assay type: toxicity
[5] = target: Somatostatin receptor type 3 (Homo sapiens, UniProt P32745); assay: Agonist activity at human SST3; assay type: functional
[6] = target: Somatostatin receptor type 1 (Homo sapiens, UniProt P30872); assay: Agonist activity at human SST1; assay type: functional
[7] = target: Somatostatin receptor type 4 (Homo sapiens, UniProt P31391); assay: Agonist activity at human SST4; assay type: functional
[8] = target: Somatostatin receptor type 2 (Homo sapiens, UniProt P30874); assay: Agonist activity at human SST2; assay type: functional
Cytochrome P450 3A4 [9] = target: T2, Cytochrome P450 3A4 (Homo sapiens, UniProt P08684); assay: Inhibition of CYP3A4 (unknown origin) preincubated for 30 mins; assay type: ADME
Cytochrome P450 3A4 [10] = target: T2, Cytochrome P450 3A4; assay: Inhibition of CYP3A4 (unknown origin); assay type: ADME
Cytochrome P450 2D6 [11] = target: T1, Cytochrome P450 2D6; assay: Inhibition of CYP2D6 (unknown origin) preincubated for 30 mins; assay type: ADME
[12] = Metabolic stability in rat liver microsomes assessed as intrinsic clearance; assay type: ADME, Microsome
[13] = Volume of distribution at steady state in Sprague-Dawley rat at 2.5 mg/kg, iv; assay type: ADME, organism-based; conditions: in vivo
[14] = Half life in Sprague-Dawley rat at 2.5 mg/kg, iv; assay type: ADME, organism-based; conditions: in vivo
[15] = AUC(0 to infinity) in Sprague-Dawley rat at 10 mg/kg, po; assay type: ADME, organism-based; design: time infinity, dose 10 mg/kg, route po; conditions: in vivo
[16] = Cmax in Sprague-Dawley rat at 10 mg/kg, po; assay type: ADME, organism-based; design: dose 10 mg/kg, route po; conditions: in vivo
Cytochrome P450 2D6 [17] = target: T1, Cytochrome P450 2D6; assay: Time dependent inhibition of CYP2D6 (unknown origin) preincubated for 30 mins; assay type: ADME
Cytochrome P450 2D6 [18] = target: T1, Cytochrome P450 2D6; assay: Time dependent inhibition of CYP2D6 (unknown origin); assay type: ADME
[19] = Oral bioavailability in Sprague-Dawley rat at 10 mg/kg; assay type: ADME, organism-based; conditions: in vivo
[20] = Metabolic stability in human liver microsomes assessed as intrinsic clearance; assay type: ADME, Microsome
Cytochrome P450 2C9 = Cytochrome P450 2C9 (Homo sapiens, UniProt P11712); assay: Inhibition of CYP2C9 (unknown origin) by fluorescent assay; assay type: ADME
[21] = Cmax in Beagle dog at 5 mg/kg, po; assay type: ADME, organism-based, Canis lupus familiaris; design: dose 5 mg/kg, route po; conditions: in vivo
[22] = Volume of distribution at steady state in Beagle dog at 2.5 mg/kg, iv; assay type: ADME, organism-based, Canis lupus familiaris; conditions: in vivo
[23] = Metabolic stability in rat liver microsomes assessed as half life; assay type: ADME, Microsome
[24] = Half life in Sprague-Dawley rat at 5 mg/kg, iv; assay type: ADME, organism-based; conditions: in vivo
[25] = Metabolic stability in dog liver microsomes assessed as half life; assay type: ADME, Canis lupus familiaris, Microsome
[26] = Volume of distribution at steady state in Sprague-Dawley rat at 5 mg/kg, iv; assay type: ADME, organism-based; conditions: in vivo
Cytochrome P450 2C19 = Cytochrome P450 2C19 (Homo sapiens, UniProt P33261); assay: Inhibition of CYP2C19 (unknown origin) by fluorescent assay; assay type: ADME
[27] = Oral bioavailability in Beagle dog at 5 mg/kg; assay type: ADME, organism-based, Canis lupus familiaris; conditions: in vivo
[28] = Half life in Beagle dog at 2.5 mg/kg, iv; assay type: ADME, organism-based, Canis lupus familiaris; conditions: in vivo
[29] = Metabolic stability in monkey liver microsomes assessed as half life; assay type: ADME, Macaca mulatta, Microsome; conditions: rhesus monkey
[30] = Metabolic stability in human liver microsomes assessed as half life; assay type: ADME, Microsome
[31] = Metabolic stability in monkey liver microsomes assessed as intrinsic clearance; assay type: ADME, Macaca mulatta, Microsome; conditions: rhesus monkey
[32] = AUC(0 to infinity) in Beagle dog at 5 mg/kg, po; assay type: ADME, organism-based, Canis lupus familiaris; design: time infinity, dose 5 mg/kg, route po; conditions: in vivo

T1 sequence (P10635 whole entry): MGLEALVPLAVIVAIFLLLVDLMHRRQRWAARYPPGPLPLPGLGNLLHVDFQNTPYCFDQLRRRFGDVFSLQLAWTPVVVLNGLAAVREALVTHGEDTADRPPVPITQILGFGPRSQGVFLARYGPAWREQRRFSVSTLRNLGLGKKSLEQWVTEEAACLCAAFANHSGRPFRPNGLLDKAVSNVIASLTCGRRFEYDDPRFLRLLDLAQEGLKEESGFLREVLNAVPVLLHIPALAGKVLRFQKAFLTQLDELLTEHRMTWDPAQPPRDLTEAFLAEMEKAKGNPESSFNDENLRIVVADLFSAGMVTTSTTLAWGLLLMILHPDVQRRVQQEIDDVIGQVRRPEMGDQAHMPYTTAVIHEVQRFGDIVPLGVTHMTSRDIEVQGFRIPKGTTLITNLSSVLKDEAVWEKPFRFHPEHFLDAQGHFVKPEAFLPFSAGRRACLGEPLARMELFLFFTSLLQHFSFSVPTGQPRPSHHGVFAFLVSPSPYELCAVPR
Somatostatin receptor type 5 (Homo sapiens, UniProt P35346), sequence (P35346 whole entry): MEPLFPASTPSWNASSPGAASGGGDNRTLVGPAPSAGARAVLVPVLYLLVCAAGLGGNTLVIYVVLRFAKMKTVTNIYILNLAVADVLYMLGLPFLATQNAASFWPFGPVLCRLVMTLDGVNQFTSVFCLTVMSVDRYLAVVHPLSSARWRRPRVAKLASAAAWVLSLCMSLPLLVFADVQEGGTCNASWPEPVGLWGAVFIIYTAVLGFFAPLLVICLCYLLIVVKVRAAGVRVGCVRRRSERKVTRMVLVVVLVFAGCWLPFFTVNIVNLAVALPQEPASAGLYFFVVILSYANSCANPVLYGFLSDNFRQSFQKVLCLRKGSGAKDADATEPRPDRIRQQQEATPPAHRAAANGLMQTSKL
T2 sequence (P08684 whole entry): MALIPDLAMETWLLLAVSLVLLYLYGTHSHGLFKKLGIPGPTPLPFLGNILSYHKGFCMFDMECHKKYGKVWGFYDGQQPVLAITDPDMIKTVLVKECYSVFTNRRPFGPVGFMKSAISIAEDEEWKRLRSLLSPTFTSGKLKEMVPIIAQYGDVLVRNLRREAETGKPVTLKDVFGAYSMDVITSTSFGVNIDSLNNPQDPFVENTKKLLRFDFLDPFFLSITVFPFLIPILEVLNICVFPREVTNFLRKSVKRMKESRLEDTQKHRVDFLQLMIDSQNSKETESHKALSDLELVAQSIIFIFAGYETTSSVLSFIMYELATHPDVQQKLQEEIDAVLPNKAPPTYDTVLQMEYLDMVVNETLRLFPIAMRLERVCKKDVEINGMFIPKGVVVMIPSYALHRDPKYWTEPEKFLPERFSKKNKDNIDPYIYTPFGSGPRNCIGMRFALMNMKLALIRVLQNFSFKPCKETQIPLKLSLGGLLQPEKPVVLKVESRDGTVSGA
Somatostatin receptor type 2, sequence (P30874 whole entry): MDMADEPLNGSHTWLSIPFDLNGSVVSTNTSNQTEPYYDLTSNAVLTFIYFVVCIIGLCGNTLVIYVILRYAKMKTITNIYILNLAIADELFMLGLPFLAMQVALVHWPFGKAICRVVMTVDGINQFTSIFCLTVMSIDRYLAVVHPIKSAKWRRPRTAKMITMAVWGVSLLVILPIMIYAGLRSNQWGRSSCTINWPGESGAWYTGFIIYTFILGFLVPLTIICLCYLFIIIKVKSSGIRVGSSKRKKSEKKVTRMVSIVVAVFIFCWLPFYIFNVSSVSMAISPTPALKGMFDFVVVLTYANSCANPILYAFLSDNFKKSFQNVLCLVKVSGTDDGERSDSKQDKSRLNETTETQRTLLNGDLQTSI
Somatostatin receptor type 1, sequence (P30872 whole entry): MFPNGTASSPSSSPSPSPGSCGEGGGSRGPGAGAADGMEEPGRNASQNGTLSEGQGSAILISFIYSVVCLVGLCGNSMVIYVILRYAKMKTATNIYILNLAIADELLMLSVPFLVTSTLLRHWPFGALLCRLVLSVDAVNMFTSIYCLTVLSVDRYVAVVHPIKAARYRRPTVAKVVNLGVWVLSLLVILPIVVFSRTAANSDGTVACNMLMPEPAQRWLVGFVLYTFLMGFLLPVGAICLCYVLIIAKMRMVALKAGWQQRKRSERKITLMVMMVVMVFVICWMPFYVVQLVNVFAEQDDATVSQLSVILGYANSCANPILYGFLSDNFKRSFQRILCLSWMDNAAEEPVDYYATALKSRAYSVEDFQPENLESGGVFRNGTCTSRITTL
Voltage-gated inwardly rectifying potassium channel KCNH2, sequence (Q12809 whole entry): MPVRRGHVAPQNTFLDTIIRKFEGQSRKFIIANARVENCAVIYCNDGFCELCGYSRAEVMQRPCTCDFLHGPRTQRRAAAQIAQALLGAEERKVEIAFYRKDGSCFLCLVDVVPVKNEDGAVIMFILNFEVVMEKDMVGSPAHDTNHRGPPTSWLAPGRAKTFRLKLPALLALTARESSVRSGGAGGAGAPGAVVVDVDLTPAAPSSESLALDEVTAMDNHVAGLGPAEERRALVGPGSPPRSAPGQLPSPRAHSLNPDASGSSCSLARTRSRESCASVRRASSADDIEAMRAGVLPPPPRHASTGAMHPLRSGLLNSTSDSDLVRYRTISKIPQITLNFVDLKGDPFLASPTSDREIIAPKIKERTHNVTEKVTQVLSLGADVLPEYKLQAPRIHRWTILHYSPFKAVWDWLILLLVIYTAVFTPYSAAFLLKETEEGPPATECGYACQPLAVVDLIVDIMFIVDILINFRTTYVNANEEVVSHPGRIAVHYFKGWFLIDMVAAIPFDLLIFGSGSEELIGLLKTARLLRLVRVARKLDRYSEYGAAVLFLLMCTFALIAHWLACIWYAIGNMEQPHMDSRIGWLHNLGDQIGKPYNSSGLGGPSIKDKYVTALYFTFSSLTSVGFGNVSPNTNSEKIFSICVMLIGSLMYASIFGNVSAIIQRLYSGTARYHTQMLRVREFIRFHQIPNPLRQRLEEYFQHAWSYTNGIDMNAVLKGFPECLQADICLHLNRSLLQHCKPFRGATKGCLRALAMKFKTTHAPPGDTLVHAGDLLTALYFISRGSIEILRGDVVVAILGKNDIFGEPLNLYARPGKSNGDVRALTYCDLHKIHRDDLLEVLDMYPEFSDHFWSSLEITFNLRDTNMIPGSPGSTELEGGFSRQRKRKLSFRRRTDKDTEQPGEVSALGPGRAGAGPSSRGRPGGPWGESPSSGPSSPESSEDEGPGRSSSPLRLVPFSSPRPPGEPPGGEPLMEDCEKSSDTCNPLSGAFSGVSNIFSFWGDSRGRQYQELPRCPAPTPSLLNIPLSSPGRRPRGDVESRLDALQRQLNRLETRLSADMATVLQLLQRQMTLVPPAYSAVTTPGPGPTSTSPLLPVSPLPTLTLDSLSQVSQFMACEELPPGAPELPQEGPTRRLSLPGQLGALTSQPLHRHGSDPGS
Somatostatin receptor type 3, sequence (P32745 whole entry): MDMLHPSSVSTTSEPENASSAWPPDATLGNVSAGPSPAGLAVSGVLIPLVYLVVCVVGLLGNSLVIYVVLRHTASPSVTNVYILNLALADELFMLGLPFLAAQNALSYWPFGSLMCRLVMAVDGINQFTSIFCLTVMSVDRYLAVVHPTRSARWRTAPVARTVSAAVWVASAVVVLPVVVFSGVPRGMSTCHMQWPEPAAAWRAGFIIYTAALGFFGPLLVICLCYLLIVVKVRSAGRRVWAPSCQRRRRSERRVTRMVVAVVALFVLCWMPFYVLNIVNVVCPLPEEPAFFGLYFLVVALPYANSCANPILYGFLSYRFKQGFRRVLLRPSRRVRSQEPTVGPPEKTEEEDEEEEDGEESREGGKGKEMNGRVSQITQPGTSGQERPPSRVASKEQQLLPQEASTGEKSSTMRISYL
Somatostatin receptor type 5 (Rattus norvegicus, UniProt P30938), sequence (P30938 whole entry, looked up): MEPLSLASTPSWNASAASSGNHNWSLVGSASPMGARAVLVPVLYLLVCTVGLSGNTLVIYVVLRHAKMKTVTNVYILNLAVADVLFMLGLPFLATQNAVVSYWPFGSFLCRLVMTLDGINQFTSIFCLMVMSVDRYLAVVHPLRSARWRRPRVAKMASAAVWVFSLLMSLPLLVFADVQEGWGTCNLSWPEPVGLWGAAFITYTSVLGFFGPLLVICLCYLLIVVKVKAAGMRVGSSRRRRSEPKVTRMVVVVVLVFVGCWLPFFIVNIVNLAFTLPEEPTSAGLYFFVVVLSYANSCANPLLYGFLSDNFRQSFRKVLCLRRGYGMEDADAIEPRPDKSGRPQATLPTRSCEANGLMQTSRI
Cytochrome P450 2C9, sequence (P11712 whole entry): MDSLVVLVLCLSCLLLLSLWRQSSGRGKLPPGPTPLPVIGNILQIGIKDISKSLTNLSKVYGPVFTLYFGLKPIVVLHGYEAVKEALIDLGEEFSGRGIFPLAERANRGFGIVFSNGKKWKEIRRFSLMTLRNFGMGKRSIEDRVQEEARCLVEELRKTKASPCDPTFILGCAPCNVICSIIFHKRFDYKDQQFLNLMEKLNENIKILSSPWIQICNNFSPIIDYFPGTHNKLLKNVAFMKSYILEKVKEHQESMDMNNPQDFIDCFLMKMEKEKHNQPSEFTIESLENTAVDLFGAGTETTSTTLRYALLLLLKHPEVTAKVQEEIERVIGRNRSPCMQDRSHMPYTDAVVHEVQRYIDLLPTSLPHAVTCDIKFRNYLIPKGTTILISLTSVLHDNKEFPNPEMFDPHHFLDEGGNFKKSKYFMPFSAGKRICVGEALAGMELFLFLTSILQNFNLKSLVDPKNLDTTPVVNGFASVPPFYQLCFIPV
Somatostatin receptor type 4, sequence (P31391 whole entry): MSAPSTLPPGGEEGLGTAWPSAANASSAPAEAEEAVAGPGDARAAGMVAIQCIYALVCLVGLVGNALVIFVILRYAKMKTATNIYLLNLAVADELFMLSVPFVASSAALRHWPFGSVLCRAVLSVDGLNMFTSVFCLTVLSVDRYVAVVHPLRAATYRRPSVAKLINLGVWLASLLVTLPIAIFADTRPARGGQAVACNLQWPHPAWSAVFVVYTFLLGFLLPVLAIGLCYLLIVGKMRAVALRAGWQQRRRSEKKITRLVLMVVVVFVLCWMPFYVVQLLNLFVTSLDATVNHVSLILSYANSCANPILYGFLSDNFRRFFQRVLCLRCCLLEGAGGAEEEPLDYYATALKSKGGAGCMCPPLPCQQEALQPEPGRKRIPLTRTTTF

In the case of NCC1CN(c2c(-c3cccc(Cl)c3)cncc2-c2nc3c(F)cc(F)cc3[nH]2)C1, the EC50 [1] is reported as 0.36 nM.
Cc1ccc(F)c2[nH]c(-c3cncc(-c4cc(F)cc(C#N)c4)c3N3CC[C@H](N)C3)nc12 gave an IC50 (Cytochrome P450 2D6 [2]) of 5300 nM, an EC50 [3] of 0.31 nM and an IC50 [4] of 280 nM. For the same molecule, the EC50 [5] was 10 nM, the EC50 [6] was over 1000 nM and the pEC50 [6] was under 6. The EC50 [7] was 3.98 nM, the EC50 ([8]; read-out: pEC50 (converted)) was 251 nM and the IC50 (Cytochrome P450 3A4 [9]) was over 10000 nM. For the same molecule, the IC50 (Cytochrome P450 3A4 [10]) was over 10000 nM, the IC50 (Cytochrome P450 2D6 [11]) was 4000 nM and the EC50 [1] was 0.23 nM.
N[C@H]1CCN(c2c(-c3cc(F)cc(Cl)c3)cncc2-c2nc3c(F)cccc3[nH]2)C1 gave a CLH [12] of 14 mL/min/g, a Vdss [13] of 22 L/kg and a t1/2 [14] of 7.1 min. For the same molecule, the AUC(0-inf) [15] was 2480 ng·h/mL, the Cmax [16] was 181 ng/mL and the IC50 (Cytochrome P450 2D6 [17]) was 90 nM. It also gave an IC50 (Cytochrome P450 2D6 [18]) of 400 nM, a bioavailability [19] of 74% and a CLH [20] of 10 mL/min/g.
Work on N#Cc1cc(-c2cncc(-c3nc4c(F)cccc4[nH]3)c2N2CC[C@H](N)C2)ccc1F yielded an EC50 [1] of 0.62 nM.
CC1(N)CCN(c2c(-c3cccc(C#N)c3)cncc2-c2nc3c(F)cccc3[nH]2)C1 (stereo not drawn) gave an EC50 [1] of 0.071 nM.
Molecule Cc1cccc(-c2cncc(-c3nc4c(F)cc(F)cc4[nH]3)c2N2CC(CN)C2)c1 has an EC50 [1] of 2.3 nM.
In the case of Cc1cc(F)cc(-c2cncc(-c3nc4cc(F)ccc4[nH]3)c2N2CC(CN)C2)c1, the EC50 ([8]; read-out: EC50) is reported as over 1000 nM.
For N#Cc1cccc(-c2cncc(-c3nc4c(F)cc(F)cc4[nH]3)c2N2CC(CN)C2)c1, the EC50 [1] was 2.6 nM.
For Cc1cc(F)cc(-c2cncc(-c3nc4c(F)cc(F)cc4[nH]3)c2N2CC(C)(CN)C2)c1, the EC50 [1] was 2.3 nM.
Cc1cc(F)cc(-c2cncc(-c3nc4c(F)cc(F)cc4[nH]3)c2N2CC(CN)C2)c1 gave an EC50 [1] of 2.2 nM.
For NCC1CN(c2c(-c3cccc(F)c3)cncc2-c2nc3c(F)cc(F)cc3[nH]2)C1, the EC50 [1] was 6.1 nM.
Cc1cc(F)cc(-c2cncc(-c3nc4c(C#N)cccc4[nH]3)c2N2CC(CN)C2)c1 showed an EC50 [1] of 19 nM.
In the case of CC(N)C1CN(c2c(-c3cc(F)cc(C(F)(F)F)c3)cncc2-c2nc3c(F)cc(F)cc3[nH]2)C1 (stereo not drawn), the EC50 [1] is reported as 0.27 nM.
N#Cc1ccc(-c2cncc(-c3nc4c(F)cccc4[nH]3)c2N2CC[C@H](N)C2)cc1F showed an EC50 [1] of 45 nM.
With Cc1cc(F)cc(-c2cncc(-c3nc4c(Cl)cccc4[nH]3)c2N2CC(CN)C2)c1 the EC50 [1] was 1.2 nM.
For Cc1cccc2[nH]c(-c3cncc(-c4cc(F)cc(C#N)c4)c3N3CC[C@H](N)C3)nc12, the CLH [12] was 2 mL/min/g, the IC50 (Cytochrome P450 2D6 [2]) was 10000 nM and the IC50 (Cytochrome P450 2C9) was over 10000 nM. The EC50 [3] was […], the IC50 [4] was 2100 nM and the Cmax [21] was 324 ng/mL. For the same molecule, the AUC(0-inf) [15] was 951 ng·h/mL, the Vdss [22] was 12.9 L/kg and the half-life [23] was over 693 min. The t1/2 [24] was 5.3 min, the half-life [25] was 347 min and the Vdss [26] was 17 L/kg. The IC50 (Cytochrome P450 2C19) was over 10000 nM, the IC50 (Cytochrome P450 3A4 [9]) was over 10000 nM and the Cmax [16] was 78 ng/mL. The bioavailability [27] was 55%, the IC50 (Cytochrome P450 3A4 [10]) was over 10000 nM and the IC50 (Cytochrome P450 2D6 [11]) was 7500 nM. It also gave a t1/2 [28] of 16.9 min, a bioavailability [19] of 33% and a half-life [29] of 15 min. For the same molecule, the half-life [30] was over 693 min, the CLH [20] was 2 mL/min/g and the CLH [31] was 94.3 mL/min/g. For the same molecule, the AUC(0-inf) [32] was 4660 ng·h/mL.
In the case of N#Cc1cccc(-c2cncc(-c3nc4c(F)cccc4[nH]3)c2N2CCC(N)(CO)C2)c1 (stereo not drawn), the EC50 [1] is reported as 1 nM.
Cc1c(F)ccc2[nH]c(-c3cncc(-c4cc(F)cc(C#N)c4)c3N3CC[C@H](N)C3)nc12 gave an EC50 [1] of 0.65 nM.
Molecule NCC1CN(c2c(-c3nc4c(F)cc(F)cc4[nH]3)cncc2-c2ccccc2F)C1 has an EC50 [1] of 400 nM.
N#Cc1cccc(-c2cncc(-c3nc4c(F)cccc4[nH]3)c2N2CC[C@H](N)C2)c1 gave an EC50 [1] of 0.55 nM.
Work on Cc1cc(F)cc2[nH]c(-c3cncc(-c4cc(F)cc(C#N)c4)c3N3CC[C@H](N)C3)nc12 yielded an EC50 [1] of 2.1 nM.
Work on Cc1cccc2c1nc(-c1cncc(-c3cc(F)cc(C#N)c3)c1N1CC[C@H](N)C1)n2C yielded an EC50 [1] of 4.2 nM.
Work on C[C@]1(N)CCN(c2c(-c3cccc(C#N)c3)cncc2-c2nc3c(F)cccc3[nH]2)C1 yielded an EC50 [1] of 0.047 nM.
Work on N#Cc1cccc(-c2cncc(-c3nc4c(F)cccc4[nH]3)c2N2CC(N)C(C(F)(F)F)C2)c1 (mixture of isomers) yielded an EC50 [1] of 42 nM.
With N#Cc1cccc(-c2cncc(-c3nc4c(F)cccc4[nH]3)c2N2C[C@@H](N)[C@H](O)C2)c1 (racemic) the EC50 [1] was 46 nM.
